Source: patent US5817669A, “Compounds, processes for the preparation thereof and anti-tumor agents” (Dainippon Pharmaceutical Co., Ltd., priority 1994, dated 1998)
In brackets after ≈: the same amount, converted by molar mass. Read-outs that look alike come from different tables or passages of the source.

Columns and labels:
[1] = tested on: AZ521 human stomach cancer; assay: In vitro anti-tumor activity against AZ-521 human stomach cancer (MTT); type: cell-based; conditions: AZ-521, 72 h, MTT, read-out: IC50
Experimental: (§1) A culture medium containing 500 to 2,000 human cancer cells was put in an amount of 0.1 ml in each well of 96-well plate, and the cells were cultured for 20 hours under a condition of 37° C. and 5% carbon dioxide gas in air. After the culturing, a solution of test compounds of predetermined concentration was added, and then, the cells were cultured for further 72 hours. After the culturing, an MTT (5 mg/ml) solution was added in an amount of 0.01 ml in the respective wells, and the cells were cultured for further 4 hours. The supernatants of the culture medium were removed by suction, and then, 0.1 ml of dimethyl sulfoxide was put in respective well to dissolve the formed formazan, and, moreover, 0.1 ml of dimethyl sulfoxide was added.

HMV2 human melanoma = assay: In vitro anti-tumor activity against HMV-2 human melanoma (MTT); type: cell-based; conditions: HMV-2, 72 h, MTT, read-out: IC50
Experimental: as §1

C33A human cervix cancer = assay: In vitro anti-tumor activity against C-33A human cervix cancer (MTT); type: cell-based; conditions: C-33A, 72 h, MTT, read-out: IC50
Experimental: as §1

[2] = tested on: MKN45 human stomach cancer; assay: In vitro anti-tumor activity against MKN45 human stomach cancer (MTT); type: cell-based; conditions: MKN-45, MKN45, 72 h, MTT, read-out: IC50
Experimental: as §1

[3] = tested on: KB human nasopharynx cancer; assay: In vitro anti-tumor activity against KB human nasopharynx cancer (MTT); type: cell-based; conditions: KB, 72 h, MTT, read-out: IC50
Experimental: as §1

[4] = tested on: murine P388 lymphocytic leukemia cells; assay: Increases in life span of mice implanted with murine P388 lymphocytic leukemia cells; type: in vivo, SLC: BDF1 mice; conditions: Mus musculus, P388, ip, 720 h, ip
Experimental: 1×10^6 murine P388 lymphocytic leukemia cells were intraperitoneally implanted in each of SLC: BDF1 mice (8 to 10 weeks old, female, 7 animals per one group). A test compound (drug) was either dissolved in 0.1 N--NaOH or suspended in 0.4% carboxymethylcellulose solution, and the resultant solution or suspension was diluted with distilled water or 0.4% carboxymethylcellulose solution so as to give predetermined concentrations for administration. The obtained solution was intraperitoneally (ip) administered twice, namely on the day following the implantation (1st day) and the 5th day, each 0.2 ml. The life and death of the mice were observed over a period of 30 days, and the median survival time (hereinafter referred to as MST) was determined for each group, and, thus, the increase in life span (ILS; %) was calculated according to the following equation:
ILS (%)=[{(MST of the test group)/(MST of the control group)}-1]×100
Drug effect was judged in the following manner, according to the criterion of U.S. National Cancer Institute (NCI):
ILS=75% or higher: ++ (remarkably effective);
20 to 74%: + (effective);
19% or lower: - (ineffective)

[5] = tested on: murine P388 lymphocytic leukemia cells; assay: In vitro anti-tumor activity against murine P388 lymphocytic leukemia cells (MTT, 72 h); type: cell-based; conditions: Mus musculus; murine P388 cells, 72 h, MTT; read-out: IC50 (50% proliferation inhibitory concentration)
Experimental: Test compounds were tested for anti-tumor activity according to MTT [3-(4,5-dimethylthiazol-2-yl)-2,5-diphenyltetrazolium bromide] method, using murine P388 lymphocytic leukemia cells. […] The culture medium was centrifuged (4° C., 2,000 rpm for 20 minutes), and thus, the supernatants were removed by suction. Then, 0.1 ml of dimethyl sulfoxide was put in each well to dissolve the formed formazan, and, subsequently, another 0.1 ml of dimethyl sulfoxide was added. The absorbance (OD) of each of the obtained solutions was measured by use of Multiskan Bichromatic (main wavelength 570 nm, sub-wavelength 690 nm). […] IC50 :μg/ml) were calculated by the least squares method.

[6] = tested on: colon 26 murine tumor cells; assay: Tumor growth inhibition effect on colon 26 murine tumor cells implanted mice; type: in vivo, SLC: CDF1 mice; conditions: for inhibition in vivo at 3.13 mg/kg: 3.13 mg/kg once a day; for inhibition in vivo at 6.25 mg/kg: 6.25 mg/kg once a day; for inhibition in vivo at 1.56 mg/kg: 1.56 mg/kg once a day
Experimental: A 2% brei of colon 26 murine tumor cells was intracutaneously implanted each 0.1 ml in the abdominal part of SLC: CDF1 female mice (7 to 9 weeks old, 7 animals per one group). […] The obtained solutions were intraperitoneally (ip) administered each 0.2 ml once a day, from the day (1st day) following the implantation to the 9th day. On the 21st or 22nd day after the implantation, tumor weight was estimated from tumor diameters, and thus, the tumor growth inhibition rate (IR %) of the drug administered group in comparison with the control group was calculated according to the following equation. IR (%)=[1-{(MTW in the treated group)/(MTW in the control group)}]×10 0 MTW: mean tumor weight

[7] = tested on: WiDr human colorectal cancer; assay: In vitro anti-tumor activity against WiDr human colorectal cancer (MTT); type: cell-based; conditions: 72 h, MTT, read-out: IC50
Experimental: as §1

A427 human lung cancer = assay: In vitro anti-tumor activity against A-427 human lung cancer (MTT); type: cell-based; conditions: A-427, 72 h, MTT, read-out: IC50
Experimental: as §1

[8] = NCI criterion, read-out: Evaluation
[9] = days 1 and 5, in suspension, read-out: ILS (%) (in suspension)
[10] = Mus musculus, Colon 26, 504 h, ip, days 1-9, day 21 or 22, read-out: Tumor growth inhibition rate IR (%)
[11] = days 1 and 5, in solution, read-out: ILS (%) (in solution)

Compound	IC50 [1] [µg/mL]	IC50 (HMV2 human melanoma) [µg/mL]	IC50 (C33A human cervix cancer) [µg/mL]	IC50 [2] [µg/mL]	IC50 [3] [µg/mL]	IC50 [5] [µg/mL]	IC50 [7] [µg/mL]	IC50 (A427 human lung cancer) [µg/mL]	ILS at 3.13 mg/kg [4, 8] [%]	ILS at 12.5 mg/kg [4, 8] [%]	ILS at 3.13 mg/kg [4, 9] [%]	ILS at 12.5 mg/kg [4, 9] [%]	inhibition in vivo at 3.13 mg/kg [6, 10] [%]	ILS at 50 mg/kg [4, 8] [%]	ILS at 50 mg/kg [4, 9] [%]	inhibition in vivo at 1.56 mg/kg [6, 10] [%]	further results
CN[C@@H]1CN(c2ccc3c(=O)c(C(=O)O)cn(-c4nccs4)c3n2)C[C@@H]1OC (relative stereo) [Compound 1-4]	0.0985 (≈ 0.245 µM)	0.197 (≈ 0.491 µM)	0.143 (≈ 0.356 µM)	0.131 (≈ 0.326 µM)	0.147 (≈ 0.366 µM)	0.02 (≈ 0.0498 µM)	0.273 (≈ 0.68 µM)	0.158 (≈ 0.394 µM)	20 to 74	> 75	25	100	61	–	–	–	–
Cl.Nc1cc(N2CCC(N)C2)nc2c1c(=O)c(C(=O)O)cn2-c1nccs1 (stereo not shown) [Compound 9, 5-Amino-7-(3-amino-1-pyrrolidinyl)-1,4-dihydro-4-oxo-1-(2-thiazolyl)-1,8-naphthyridine-3-carboxylic acid hydrochloride]	0.0625	0.211	0.151	0.148	0.106	0.00809	0.412	0.1	> 75	> 75	100	125	62	> 75	250	–	inhibition in vivo at 6.25 mg/kg [6, 10]: 97%
CNC1CCN(c2ccc3c(=O)c(C(=O)O)cn(-c4nccs4)c3n2)C1 (stereo not shown) [Compound 6]	0.0622 (≈ 0.167 µM)	0.122 (≈ 0.328 µM)	0.156 (≈ 0.42 µM)	0.16 (≈ 0.431 µM)	0.0987 (≈ 0.266 µM)	0.0105 (≈ 0.0283 µM)	0.381 (≈ 1.03 µM)	0.0832 (≈ 0.224 µM)	> 75	> 75	100	200	–	> 75	> 275	71	ILS at 1.56 mg/kg [4, 8]: 20 to 74%; ILS at 6.25 mg/kg [4, 8]: > 75%; ILS at 25 mg/kg [4, 8]: > 75%; ILS at 1.56 mg/kg [4, 11]: 63%; ILS at 3.13 mg/kg [4, 11]: 100%; ILS at 6.25 mg/kg [4, 11]: 138%; ILS at 12.5 mg/kg [4, 11]: 150%; ILS at 25 mg/kg [4, 11]: 225%
CN[C@@H]1CN(c2ccc3c(=O)c(C(=O)O)cn(-c4nccs4)c3n2)C[C@H]1OC (single isomer, unassigned) [Compound 1-2, (+)-1,4-Dihydro-7-(trans-3-methoxy-4-methylamino-1-pyrrolidinyl)-4-oxo-1-(2-thiazolyl)-1,8-naphthyridine-3-carboxylic acid]	0.0396 (≈ 0.0986 µM)	0.114 (≈ 0.284 µM)	0.0828 (≈ 0.206 µM)	0.155 (≈ 0.386 µM)	0.0873 (≈ 0.217 µM)	0.00641 (≈ 0.016 µM)	0.357 (≈ 0.889 µM)	0.0925 (≈ 0.23 µM)	–	–	–	–	–	–	–	–	inhibition in vivo at 1.1 mg/kg ([6]; Mus musculus, Colon 26, 504 h, ip, 1.10 mg/kg once a day, days 1-9, day 21 or 22, read-out: Tumor growth inhibition rate IR (%)): 69%
C[C@@H]1CN(c2ccc3c(=O)c(C(=O)O)cn(-c4nccs4)c3n2)C[C@H]1N (relative stereo) [Compound 7]	0.0719 (≈ 0.194 µM)	0.139 (≈ 0.374 µM)	0.105 (≈ 0.283 µM)	0.112 (≈ 0.302 µM)	0.111 (≈ 0.299 µM)	0.00955 (≈ 0.0257 µM)	0.314 (≈ 0.845 µM)	0.0933 (≈ 0.251 µM)	> 75	> 75	75	100	95	> 75	188	61	–
C[C@@H]1[C@@H](N)CCN1c1ccc2c(=O)c(C(=O)O)cn(-c3nccs3)c2n1 (relative stereo) [Compound 17]	–	–	–	–	–	–	–	–	–	–	–	–	–	> 75	150	–	–

Second part, led by results:

IC50 [1] [µg/mL]	IC50 (HMV2 human melanoma) [µg/mL]	IC50 (C33A human cervix cancer) [µg/mL]	IC50 [2] [µg/mL]	IC50 [3] [µg/mL]	IC50 [5] [µg/mL]	IC50 [7] [µg/mL]	IC50 (A427 human lung cancer) [µg/mL]	Compound	ILS at 3.13 mg/kg [4, 8] [%]	ILS at 12.5 mg/kg [4, 8] [%]	ILS at 3.13 mg/kg [4, 9] [%]	ILS at 12.5 mg/kg [4, 9] [%]	inhibition in vivo at 3.13 mg/kg [6, 10] [%]	ILS at 50 mg/kg [4, 8] [%]	ILS at 50 mg/kg [4, 9] [%]	inhibition in vivo at 1.56 mg/kg [6, 10] [%]	further results
0.797 (≈ 2.21 µM)	2.88 (≈ 7.99 µM)	0.651 (≈ 1.81 µM)	1.27 (≈ 3.52 µM)	1.94 (≈ 5.38 µM)	0.0942 (≈ 0.261 µM)	4.09 (≈ 11.3 µM)	0.854 (≈ 2.37 µM)	O=C(O)c1cn(-c2nccs2)c2nc(N3CCCC3)c(F)cc2c1=O [Compound A, reference compound]	–	–	–	–	–	20 to 74	–	–	ILS at 25 mg/kg [4, 8]: 20 to 74%; ILS at 12.5 mg/kg [4, 11]: 0%; ILS at 25 mg/kg [4, 11]: 25%; ILS at 50 mg/kg [4, 11]: 38%; inhibition in vivo at 12.5 mg/kg ([6]; Mus musculus, Colon 26, 504 h, ip, 12.5 mg/kg once a day, days 1-9, day 21 or 22, read-out: Tumor growth inhibition rate IR (%)): 23%; tumor growth inhibition (IR), colon 26, in words ([6]; in words): apparently inferior to the compounds of this invention in view of both doses and inhibition rates
0.0717 (≈ 0.173 µM)	0.171 (≈ 0.412 µM)	0.138 (≈ 0.332 µM)	0.139 (≈ 0.335 µM)	0.15 (≈ 0.361 µM)	0.0252 (≈ 0.0607 µM)	0.268 (≈ 0.645 µM)	0.15 (≈ 0.361 µM)	CCN[C@@H]1CN(c2ccc3c(=O)c(C(=O)O)cn(-c4nccs4)c3n2)C[C@H]1OC (relative stereo) [Compound 13]	20 to 74	> 75	25	100	–	> 75	213	41	–
0.31 (≈ 0.865 µM)	0.872 (≈ 2.43 µM)	–	–	0.636 (≈ 1.77 µM)	0.0466 (≈ 0.13 µM)	–	–	NC1CCN(c2ncc3c(=O)c(C(=O)O)cn(-c4nccs4)c3n2)C1 (stereo not shown) [Compound 14]	20 to 74	> 75	63	113	55	> 75	> 275	–	inhibition in vivo at 6.25 mg/kg [6, 10]: 68%
